Assay type in all cases: biochemical
In one test the target is HDAC3 (Homo sapiens, UniProt O15379). In words: HDAC3 protease-coupled fluorescence (AMC) inhibition assay. The settings on record: hr enzyme, 10-dose, 3-fold dilution from 50 μM (3: from 300 μM); read-out: IC50 against HDAC3. An excerpt:
(§1) The new hydroxamates 2 and 6 were screened and profiled via a protease-coupled assay in which the quantification of HDAC enzyme activity is based on the formation of a free fluorescent group, the 7-amino-4-methyl coumarin (AMC).[42] […] After deacetylation by HDACs, the de(trifluoro)acetylated AMC–peptides were sensitive toward lysine peptidase and free fluorogenic AMC was generated and quantified.[42]
(§2) To gain insights into its inhibition profile for human HDACs, we tested 3 against hrHDACs 1–6 and 8 following the above procedure (Table 1).
(§3) Individual IC50 values for each HDAC isozyme were measured with the homogeneous fluorescence release HDAC assay.[42]

A further test deals with T1, HDAC6 (Homo sapiens, UniProt Q9UBN7).
T1 sequence (Q9UBN7 1-1215): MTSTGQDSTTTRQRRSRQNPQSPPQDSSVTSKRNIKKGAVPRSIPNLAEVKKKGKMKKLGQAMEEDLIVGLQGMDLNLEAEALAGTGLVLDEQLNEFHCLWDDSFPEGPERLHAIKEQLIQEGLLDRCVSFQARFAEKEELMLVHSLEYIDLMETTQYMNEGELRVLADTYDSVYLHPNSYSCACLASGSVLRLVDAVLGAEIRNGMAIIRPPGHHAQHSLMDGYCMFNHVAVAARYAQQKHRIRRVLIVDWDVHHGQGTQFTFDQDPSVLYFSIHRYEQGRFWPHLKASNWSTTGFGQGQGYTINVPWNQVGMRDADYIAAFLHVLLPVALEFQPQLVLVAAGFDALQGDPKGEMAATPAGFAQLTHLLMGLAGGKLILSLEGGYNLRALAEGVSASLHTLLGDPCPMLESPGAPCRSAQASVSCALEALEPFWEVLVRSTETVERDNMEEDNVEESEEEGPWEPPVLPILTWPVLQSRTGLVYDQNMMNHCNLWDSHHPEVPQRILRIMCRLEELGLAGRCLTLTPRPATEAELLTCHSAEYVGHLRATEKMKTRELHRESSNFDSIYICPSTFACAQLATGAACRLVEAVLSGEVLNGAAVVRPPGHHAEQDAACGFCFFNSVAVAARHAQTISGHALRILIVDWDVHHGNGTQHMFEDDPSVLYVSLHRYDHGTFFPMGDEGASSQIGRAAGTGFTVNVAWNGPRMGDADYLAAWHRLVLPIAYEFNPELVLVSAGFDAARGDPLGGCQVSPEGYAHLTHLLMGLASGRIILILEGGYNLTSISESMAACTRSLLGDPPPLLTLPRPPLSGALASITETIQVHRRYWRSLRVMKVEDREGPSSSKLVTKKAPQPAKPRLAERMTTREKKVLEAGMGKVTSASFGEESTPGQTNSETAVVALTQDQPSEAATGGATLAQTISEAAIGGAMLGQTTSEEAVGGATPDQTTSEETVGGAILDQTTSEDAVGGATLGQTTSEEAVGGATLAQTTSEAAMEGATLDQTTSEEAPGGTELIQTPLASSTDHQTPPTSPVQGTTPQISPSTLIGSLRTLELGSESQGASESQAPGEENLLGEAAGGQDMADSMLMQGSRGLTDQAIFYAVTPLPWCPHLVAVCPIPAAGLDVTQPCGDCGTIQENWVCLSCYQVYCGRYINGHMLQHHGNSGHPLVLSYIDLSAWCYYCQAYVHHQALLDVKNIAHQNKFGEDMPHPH
In words: HDAC6 protease-coupled fluorescence (AMC) inhibition assay. The settings on record: hr enzyme, 10-dose, 3-fold dilution from 50 μM (3: from 300 μM); read-out: IC50 against HDAC6.
Excerpt: as §1, §2, §3

The target in the next test is HDAC1 (Homo sapiens, UniProt Q13547). In words: HDAC1 protease-coupled fluorescence (AMC) inhibition assay. The settings on record: hr enzyme, 10-dose, 3-fold dilution from 50 μM (3: from 300 μM); read-out: IC50 against HDAC1.
Chain of HDAC1 (Q13547 whole entry): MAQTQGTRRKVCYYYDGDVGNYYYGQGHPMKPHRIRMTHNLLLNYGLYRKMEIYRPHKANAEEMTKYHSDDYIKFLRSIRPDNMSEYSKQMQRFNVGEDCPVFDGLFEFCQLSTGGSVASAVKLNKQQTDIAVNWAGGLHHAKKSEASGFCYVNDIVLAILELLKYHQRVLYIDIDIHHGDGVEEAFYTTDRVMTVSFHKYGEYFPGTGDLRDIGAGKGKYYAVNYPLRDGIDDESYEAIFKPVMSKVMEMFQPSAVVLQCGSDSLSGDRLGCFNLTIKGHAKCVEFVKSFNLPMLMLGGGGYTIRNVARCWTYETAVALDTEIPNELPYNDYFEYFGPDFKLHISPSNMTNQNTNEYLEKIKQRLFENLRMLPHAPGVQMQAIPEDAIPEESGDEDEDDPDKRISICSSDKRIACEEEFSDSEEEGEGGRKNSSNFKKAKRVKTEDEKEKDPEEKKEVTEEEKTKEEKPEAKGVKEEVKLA
Excerpt: as §1, §2, §3

Chain of HDAC3 (O15379 whole entry): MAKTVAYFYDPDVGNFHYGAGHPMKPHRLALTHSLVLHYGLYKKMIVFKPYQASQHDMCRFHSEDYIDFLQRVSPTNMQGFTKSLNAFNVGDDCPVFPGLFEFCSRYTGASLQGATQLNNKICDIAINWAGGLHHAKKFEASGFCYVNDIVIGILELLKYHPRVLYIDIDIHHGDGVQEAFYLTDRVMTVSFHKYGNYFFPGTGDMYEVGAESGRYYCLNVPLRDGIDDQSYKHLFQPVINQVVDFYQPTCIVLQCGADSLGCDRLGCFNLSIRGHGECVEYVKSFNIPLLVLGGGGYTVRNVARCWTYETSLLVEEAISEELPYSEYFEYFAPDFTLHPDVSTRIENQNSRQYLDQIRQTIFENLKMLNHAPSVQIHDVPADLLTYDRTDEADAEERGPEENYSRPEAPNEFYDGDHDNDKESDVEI
Chain of HDAC3 (Q9Y618 395-489 partner limits assumed): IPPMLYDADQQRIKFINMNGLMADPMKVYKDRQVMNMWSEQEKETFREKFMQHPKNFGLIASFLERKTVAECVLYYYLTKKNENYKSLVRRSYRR

Take `O=C(/C=C/c1ccc(CSc2nc(Cl)cc(-c3ccccc3)n2)cc1)NO` [Compound 2, 3-(4-(((4-Chloro-6-phenylpyrimidin-2-yl)thio)methyl)phenyl)-N-hydroxy Acrylamide]: the half-maximal inhibitory concentration (IC50) – broadly, the midpoint of a concentration-inhibition curve – came to 530 nM at HDAC3, 120 nM on HDAC6 and 1680 nM on HDAC1.

Turning to `CN(C)Cc1ccc(S(=O)(=O)n2ccc3cc(/C=C/C(=O)NO)ccc32)cc1` [Compound 6, 3-(1-((4-((Dimethylamino)methyl)phenyl)sulfonyl)-1H-indol-5-yl)-N-hydroxy Acrylamide], the IC50 on HDAC3 was found to be 380 nM; on HDAC6, 18 nM; at HDAC1, 2070 nM.

Source of the values: PMC9274761, “Effects of Structurally Different HDAC Inhibitors against Trypanosoma cruzi, Leishmania, and Schistosoma mansoni” (ACS Infectious Diseases, 2022).
